# Reference: patent publication US8921555B2, “Substituted-1,3,8-triazaspiro[4.5]decane-2,4-diones” (Merck Sharp & Dohme Corp., priority 2009, dated 2014)
# Biological target: T1, HIF-PHD2 (Homo sapiens, UniProt Q9GZT9)
# T1 construct: FLAG-tagged full length PHD2 expressed in and purified from baculovirus-infected Sf9 cells; FLAG; made in house; host or cells: baculovirus-infected Sf9 cells
# Test: Assay for HIF-PHD2 Catalytic Activity (PHD2 Binding Activity)
# Format: biochemical
# Conditions: not given
# T1 sequence (Q9GZT9 whole entry): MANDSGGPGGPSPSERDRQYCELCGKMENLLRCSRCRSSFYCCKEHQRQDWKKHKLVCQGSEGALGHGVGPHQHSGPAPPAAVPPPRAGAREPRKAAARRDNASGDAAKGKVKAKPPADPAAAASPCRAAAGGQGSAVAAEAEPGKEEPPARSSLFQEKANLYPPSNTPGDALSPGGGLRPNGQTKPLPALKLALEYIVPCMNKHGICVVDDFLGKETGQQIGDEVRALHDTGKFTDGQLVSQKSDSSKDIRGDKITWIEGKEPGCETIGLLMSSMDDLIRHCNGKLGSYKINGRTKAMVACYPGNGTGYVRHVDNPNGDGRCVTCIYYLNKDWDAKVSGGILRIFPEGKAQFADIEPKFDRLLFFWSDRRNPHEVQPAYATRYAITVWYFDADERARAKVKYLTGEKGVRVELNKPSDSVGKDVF
row,SMILES,IC50
1,"Cc1cccnc1CN1CCC2(CC1)C(=O)N(c1ccc(-c3ccccc3)cc1)C(=O)N2c1ccncc1 [Compound 1-8, 3-biphenyl-4-yl-8-[(3-methylpyridin-2-yl)methyl]-1-pyridin-4-yl-1,3,8-triazaspiro[4.5]decane-2,4-dione]",20 to 50 nM
2,"COc1ccnc(N2C(=O)N(c3ccc(-c4ccccc4)cc3)C(=O)C23CCN(Cc2nnn[nH]2)CC3)n1 [Compound 1.39, 3-biphenyl-4-yl-1-(4-methoxypyrimidin-2-yl)-8-(1H-tetrazol-5-ylmethyl)-1,3,8-triazaspiro[4.5]decane-2,4-dione]",> 50 nM
3,"CCOC(=O)C1CN(Cc2ncccc2C)CCC12C(=O)N(c1ccc(-c3ccccc3)cc1)C(=O)N2c1cc(O)ncn1 (single isomer, unassigned) [Compound 3-10, Ethyl 3-biphenyl-4-yl-1-(6-hydroxypyrimidin-4-yl)-8-[(3-methylpyridin-2-yl)methyl]-2,4-dioxo-1,3,8-triazaspiro[4.5]decane-6-carboxylate]",0.5 to 20 nM
4,"COc1ccnc(N2C(=O)N(c3ccc(-c4ccc(C(=O)O)cc4C)nc3)C(=O)C23CCN(Cc2ncccc2C)CC3)n1 [Compound 11-2, 4-(5-{1-(4-methoxypyrimidin-2-yl)-8-[(3-methylpyridin-2-yl)methyl]-2,4-dioxo-1,3,8-triazaspiro[4.5]dec-3-yl}-pyridin-2-yl)-3-methylbenzoic acid]",0.5 to 20 nM
5,"CC(C)(C)OC(=O)CN1CCC2(CC1)C(=O)N(c1ccc(-c3ccccc3)cc1)C(=O)N2c1cnccn1 [Compound 2-2, tert-butyl (3-biphenyl-4-yl-2,4-dioxo-1-pyrazin-2-yl-1,3,8-triazaspiro[4.5]dec-8-yl)acetate]",> 50 nM
6,"O=C(O)CN1CCC2(CC1)C(=O)N(c1ccc(-c3ccccc3)cc1)C(=O)N2c1cnccn1 [Compound 2-3, (3-biphenyl-4-yl-2,4-dioxo-1-pyrazin-2-yl-1,3,8-triazaspiro[4.5]dec-8-yl)acetic acid]",0.5 to 20 nM
7,"COc1ccnc(N2C(=O)N(c3ccc(-c4ccccc4)cc3)C(=O)C23CCN(Cc2nccn2CC(=O)OC(C)(C)C)CC3)n1 [Compound 1-19, tert-butyl (2-{[3-biphenyl-4-yl-1-(4-methoxypyrimidin-2-yl)-2,4-dioxo-1,3,8-triazaspiro[4,5]dec-8-yl]methyl}-1H-imidazol-1-yl)acetate]",> 50 nM
8,"CCOC(=O)C1CN(Cc2ncccc2C)CCC12C(=O)N(c1ccc(-c3ccccc3)cc1)C(=O)N2c1nccc(O)n1 (stereo not drawn) [Compound 3-3, ethyl 3-biphenyl-4-yl-1-(4-hydroxypyrimidin-2-yl)-8-[(3-methylpyridin-2-yl)methyl]-2,4-dioxo-1,3,8-triazaspiro[4.5]decane-6-carboxylate]",0.5 to 20 nM
9,"COc1ccnc(N2C(=O)N(c3ccc(C#N)cc3)C(=O)C23CCN(Cc2ncccc2C)CC3)n1 [Compound 1-25, 4-{1-(4-methoxypyrimidin-2-yl)-8-[(3-methylpyridin-2-yl)methyl]-2,4-dioxo-1,3,8-triazaspiro[4.5]dec-3-yl}benzonitrile]",> 50 nM
10,"Cc1cccnc1CN1CCC2(CC1)C(=O)N(c1ccc(-c3nnn[nH]3)cc1)C(=O)N2c1nccc(O)n1 [Compound 1-16, 1-(4-hydroxypyrimidin-2-yl)-8-[(3-methylpyridin-2-yl)methyl]-3-[4-(1H-tetrazol-5-yl)phenyl]-1,3,8-triazaspiro[4.5]decane-2,4-dione]",> 50 nM
11,"COc1ccnc(N2C(=O)N(c3ccc(-c4ccccc4)cc3)C(=O)C23CCN(Cc2nccn2CC(=O)O)CC3)n1 [Compound 1-21, (2-{[3-biphenyl-4-yl-1-(4-methoxypyrimidin-2-yl)-2,4-dioxo-1,3,8-triazaspiro[4.5]dec-8-yl]methyl}-1H-imidazol-1-yl)acetic acid]",0.5 to 20 nM
12,"COc1ccnc(N2C(=O)N(c3ccc(-c4ccccc4)cc3)C(=O)C23CCN(Cc2ncccc2C)CC3)n1 [Compound 1-29, 3-biphenyl-4-yl-1-(4-methoxypyrimidin-2-yl)-8-[(3-methylpyridin-2-yl)methyl]-1,3,8-triazaspiro[4.5]decane-2,4-dione]",0.5 to 20 nM
13,"CCOC(=O)C1CN(Cc2ncccc2C)CCC12C(=O)N(c1ccc(-c3ccccc3)cc1)C(=O)N2c1nccc(OC)n1 (stereo not drawn) [Compound 3-2, ethyl 3-biphenyl-4-yl-1-(4-methoxypyrimidin-2-yl)-8-[(3-methylpyridin-2-yl)methyl]-2,4-dioxo-1,3,8-triazaspiro[4.5]decane-6-carboxylate]",0.5 to 20 nM
14,"O=C1N(c2ccc(-c3ccccc3)cc2)C(=O)C2(CCN(Cc3ncccc3Br)CC2)N1c1nccc(O)n1 [Compound 1-31, 3-biphenyl-4-yl-8-[(3-bromopyridin-2-yl)methyl]-1-(4-hydroxypyrimidin-2-yl)-1,3,8-triazaspiro[4.5]decane-2,4-dione]",> 50 nM
15,"O=C(O)CCn1ccnc1CN1CCC2(CC1)C(=O)N(c1ccc(-c3ccccc3)cc1)C(=O)N2c1nccc(O)n1 [Compound 1-24, 3-(2-{[3-biphenyl-4-yl-1-(4-hydroxypyrimidin-2-yl)-2,4-dioxo-1,3,8-triazaspiro[4.5]dec-8-yl]methyl}-1H-imidazol-1-yl)propanoic acid]",0.5 to 20 nM
16,"Cc1cncc(N2C(=O)N(c3ccc(-c4ccc(C(=O)O)cc4C)cc3)C(=O)C23CCN(Cc2ncccc2C)CC3)n1 [Compound 7-6, 2-methyl-4′-{1-(6-methylpyrazin-2-yl)-8-[(3-methylpyridin-2-yl)methyl]-2,4-dioxo-1,3,8-triazaspiro[4.5]dec-3-yl}biphenyl-4-carboxylic acid]",0.5 to 20 nM
17,"Cc1cccnc1CN1CCC2(CC1)C(=O)N(c1ccc(-c3ccccc3)cc1)C(=O)N2c1ccnc(O)c1 [Compound 1-58, 3-biphenyl-4-yl-1-(2-hydroxypyridin-4-yl)-8-[(3-methylpyridin-2-yl)methyl]-1,3,8-triazaspiro[4.5]decane-2,4-dione]",0.5 to 20 nM
18,"Cc1cccnc1CN1CCC2(CC1)C(=O)N(c1ccc(-c3ccccc3)cc1)C(=O)N2c1ncc(O)cn1 [Compound 1-10, 3-biphenyl-4-yl-1-(5-hydroxypyrimidin-2-yl)-8-[(3-methylpyridin-2-yl)methyl]-1,3,8-triazaspiro[4.5]decane-2,4-dione]",0.5 to 20 nM
19,"COC(=O)c1ccc(-c2ccc(N3C(=O)N(c4ncccn4)C4(CCN(Cc5ncccc5C)CC4)C3=O)cc2)cc1 [Compound 1-61, Methyl 4′-{8-[(3-methylpyridin-2-yl)methyl]-2,4-dioxo-1-pyrimidin-2-yl-1,3,8-triazaspiro[4.5]dec-3-yl}biphenyl-4-carboxylate]",0.5 to 20 nM
20,"Cc1cccnc1CN1CCC2(CC1)C(=O)N(c1ccc(-c3ccccc3)cc1)C(=O)N2c1nc(O)cc(O)n1 [Compound 1-55, 3-biphenyl-4-yl-1-(4,6-dihydroxypyrimidin-2-yl)-8-[(3-methylpyridin-2-yl)methyl]-1,3,8-triazaspiro[4.5]decane-2,4-dione]",0.5 to 20 nM
21,"COC(=O)c1ccc(-c2ccc(N3C(=O)N(c4ccncn4)C4(CCN(Cc5ncccc5C)CC4)C3=O)cc2)c(C)c1 [Compound 8-2, methyl 2-methyl-4′-{8-[(3-methylpyridin-2-yl)methyl]-2,4-dioxo-1-pyrimidin-4-yl-1,3,8-triazaspiro[4.5]dec-3-yl}biphenyl-4-carboxylate]",0.5 to 20 nM
22,"COc1ccnc(N2C(=O)N(c3ccc(-c4ccccc4)cc3)C(=O)C23CCN(Cc2nccn2CCC(=O)O)CC3)n1 [Compound 1-22, 3-(2-{[3-biphenyl-4-yl-1-(4-methoxypyrimidin-2-yl)-2,4-dioxo-1,3,8-triazaspiro[4.5]dec-8-yl]methyl}-1H-imidazol-1-yl)propanoic acid]",0.5 to 20 nM
23,"COc1ccnc(CN2CCC3(CC2)C(=O)N(c2ccc(-c4ccc(C(=O)O)cc4)nc2)C(=O)N3c2cc(OC)ncn2)c1 [Compound 10-3, 4-(5-{8-[(4-methoxypyridin-2-yl)methyl]-1-(6-methoxypyrimidin-4-yl)-2,4-dioxo-1,3,8-triazaspiro[4.5]dec-3-yl}-pyridin-2-yl) benzoic acid]",0.5 to 20 nM
24,"COc1ccnc(N2C(=O)N(c3ccccc3)C(=O)C23CCN(Cc2ncccc2C)CC3)n1 [Compound 1-30, 1-(4-methoxypyrimidin-2-yl)-8-[(3-methylpyridin-2-yl)methyl]-3-phenyl-1,3,8-triazaspiro[4.5]decane-2,4-dione]",> 50 nM
25,"CCOC(=O)C1CN(Cc2ncccc2C)CCC12C(=O)N(c1ccc(-c3ccccc3)cc1)C(=O)N2c1cc(O)ncn1 (stereo not drawn) [Compound 3-6, Ethyl 3-biphenyl-4-yl-1-(6-hydroxypyrimidin-4-yl)-8-[(3-methylpyridin-2-yl)methyl]-2,4-dioxo-1,3,8-triazaspiro[4.5]decane-6-carboxylate]",0.5 to 20 nM

# Same assay, conditions: read-out: PHD2 Binding Activity IC50
row,SMILES,IC50
1,"Cc1cccnc1CN1CCC2(CC1)C(=O)N(c1ccc(-c3ccccc3)cc1)C(=O)N2C(=O)N[C@@H](CO)C(=O)O [Compound 5-6, N-({3-biphenyl-4-yl-8-[(3-methylpyridin-2-yl)methyl]-2,4-dioxo-1,3,8-triazaspiro[4.5]dec-1-yl}carbonyl)-L-serine]",0.5 to 20 nM
2,Cc1cccnc1CN1CCC2(CC1)C(=O)N(c1ccc(-c3ccccc3)cc1)C(=O)N2CC(=O)O [Compound 2-7],0.5 to 20 nM
3,"O=C(O)CN1CCC2(CC1)NC(=O)N(c1ccc(-c3ccccc3)cc1)C2=O [Compound 4-1, (3-biphenyl-4-yl-2,4-dioxo-1,3,8-triazaspiro[4.5]dec-8-yl)acetic acid]",> 50 nM
4,"Cc1cccnc1CN1CCC2(CC1)C(=O)N(c1ccc(-c3ccccc3)cc1)C(=O)N2C(=O)N[C@@H](C)C(=O)O [Compound 5-5, (2S)-2-[({3-biphenyl-4-yl-8-[(3-methylpyridin-2-yl)methyl]-2,4-dioxo-1,3,8-triazaspiro[4.5]dec-1-yl}carbonyl)amino]propanoic acid]",0.5 to 20 nM
5,"Cc1cccnc1CN1CCC2(CC1)C(=O)N(c1ccc(-c3ccccc3)cc1)C(=O)N2C [Compound 2-1, 3-biphenyl-4-yl-1-methyl-8-[(3-methylpyridin-2-yl)methyl]-1,3,8-triazaspiro[4.5]decane-2,4-dione]",0.5 to 20 nM
